Measurements published in the supplement of paper PMC4862054.

What was measured:
Details in all cases: 72 h
CAL-148 [1] = tested on: CAL-148
How it was run: (§1)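 Two sequential readouts followed a 72 h incubation of breast cancer cell lines with compound at 5 concentrations in 10-fold steps over a compound-specific 10,000-fold range: CellTox Green fluorescence (485/520 nm) for cell death, then CellTiter-Glo luminescence, after 10 min at room temperature, for viability. Each plate was normalised to 0.1 % DMSO and a positive kill control. Dose-response curves were fitted for EC50, censored at the top concentration.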

BT-474 [2] = tested on: BT-474
How it was run: (§2)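 Compound dissolved in 5 µl medium was placed in 384-well plates before 20 µl of breast cancer cell suspension was added, and the plates were incubated for 72 h. Cells then received 2.5 µl CellTiter-Blue for 2 h at 37 °C, and fluorescence was read at 560/590 nm. EC50 values come from percent-inhibition dose-response fits that were censored at the highest concentration, with plates normalised to vehicle and a positive kill control and rows with a zero drug sensitivity score excluded.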

BT-549 [3] = tested on: BT-549
How it was run: as §2

CAL-120 = tested on: CAL-120
How it was run: as §2

HCC1143 = tested on: HCC1143
How it was run: as §2

HCC1599 [4] = tested on: HCC1599
How it was run: as §2

HCC1937 [5] = tested on: HCC1937
How it was run: as §2

Hs578T [6] = tested on: Hs578T
How it was run: as §2

MDA-MB-231 [7] = tested on: MDA-MB-231
How it was run: as §2

MDA-MB-436 [8] = tested on: MDA-MB-436
How it was run: as §2

MDA-MB-468 = tested on: MDA-MB-468
How it was run: as §2

MFM-223 = tested on: MFM-223
How it was run: as §2

SK-BR-3 = tested on: SK-BR-3
How it was run: as §2

CAL-148 [9] = tested on: CAL-148; remark: listed apart in the source
Description: (§3)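 Drug sensitivity and resistance testing (DSRT) of breast cancer cell lines in 384-well plates, 5 concentrations in 10-fold dilutions over a compound-specific 10,000-fold range. After 72 h, cytotoxicity was read by CellTox Green fluorescence and viability by CellTiter-Glo luminescence (multiplexed), normalised to DMSO and benzethonium chloride controls. EC50 is the inflection point of the fitted dose-response curve (bottom asymptote free, so it can be relative for partial curves) and is censored at the highest tested concentration. Rows with DSS 0 (no meaningful response) were excluded.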

CAL-51 = tested on: CAL-51
Description: as §3

HDQ-P1 [10] = tested on: HDQ-P1
Description: as §3

CAL-85-1 [11] = tested on: CAL-85-1
How it was run: as §1

HCC1599 [12] = tested on: HCC1599; remark: listed apart in the source
How it was run: as §1

HCC1937 [13] = tested on: HCC1937; remark: listed apart in the source
How it was run: as §1

HDQ-P1 [14] = tested on: HDQ-P1; remark: listed apart in the source
How it was run: as §1

MDA-MB-453 = tested on: MDA-MB-453
How it was run: as §1

BT-474 [15] = tested on: BT-474; remark: listed apart in the source
Description: as §3

BT-549 [16] = tested on: BT-549; remark: listed apart in the source
Description: as §3

CAL-85-1 [17] = tested on: CAL-85-1; remark: listed apart in the source
Description: as §3

HCC1599 [18] = tested on: HCC1599; remark: listed apart in the source
Description: as §3

Hs578T [19] = tested on: Hs578T; remark: listed apart in the source
Description: as §3

MDA-MB-231 [20] = tested on: MDA-MB-231; remark: listed apart in the source
Description: as §3

MDA-MB-436 [21] = tested on: MDA-MB-436; remark: listed apart in the source
Description: as §3

HCC1937 [22] = tested on: HCC1937; remark: listed apart in the source
Description: as §3

EC50, CellTiter-Blue viability (MDA-MB-231 [7]) [µM]	EC50, CellTiter-Glo (MDA-MB-453) [µM]	Structure (SMILES)	EC50, CellTiter-Glo (CAL-148 [1]) [µM]	EC50, CellTiter-Blue viability (BT-474 [2]) [µM]	EC50, CellTiter-Blue viability (BT-549 [3]) [µM]	EC50, CellTiter-Blue viability (CAL-120) [µM]	EC50, CellTiter-Blue viability (HCC1143) [µM]	EC50, CellTiter-Blue viability (HCC1599 [4]) [µM]	EC50, CellTiter-Blue viability (HCC1937 [5]) [µM]	EC50, CellTiter-Blue viability (Hs578T [6]) [µM]	EC50, CellTiter-Blue viability (MDA-MB-436 [8]) [µM]	EC50, CellTiter-Blue viability (MDA-MB-468) [µM]	EC50, CellTiter-Blue viability (MFM-223) [µM]	EC50, CellTiter-Blue viability (SK-BR-3) [µM]	EC50, CellTox Green (CAL-148 [9]) [µM]	EC50, CellTox Green (CAL-51) [µM]	EC50, CellTox Green (HDQ-P1 [10]) [µM]	EC50, CellTiter-Glo (CAL-85-1 [11]) [µM]	EC50, CellTiter-Glo (HCC1599 [12]) [µM]	EC50, CellTiter-Glo (HCC1937 [13]) [µM]	EC50, CellTiter-Glo (HDQ-P1 [14]) [µM]	EC50, CellTox Green (BT-474 [15]) [µM]	EC50, CellTox Green (BT-549 [16]) [µM]	EC50, CellTox Green (CAL-85-1 [17]) [µM]	EC50, CellTox Green (HCC1599 [18]) [µM]	EC50, CellTox Green (Hs578T [19]) [µM]	EC50, CellTox Green (MDA-MB-231 [20]) [µM]	EC50, CellTox Green (MDA-MB-436 [21]) [µM]	EC50, CellTox Green (HCC1937 [22]) [µM]
		C[C@]12C=CC(=O)C=C1CC[C@@H]1[C@@H]2[C@@H](O)C[C@@]2(C)[C@H]1CC[C@]2(O)C(=O)CO [Prednisolone]															7.32												
0.0197		O=C(NC[C@H](O)CO)c1ccncc1Nc1ccc(I)cc1F				0.421	0.00791	0.756																					
		CCC/C=C/C=C/C(=O)O[C@H]1/C(=C/C(=O)OC)C[C@H]2C[C@H]([C@@H](C)O)OC(=O)C[C@H](O)C[C@@H]3C[C@H](OC(C)=O)C(C)(C)[C@](O)(C[C@@H]4C/C(=C/C(=O)OC)C[C@H](/C=C/C(C)(C)[C@]1(O)O2)O4)O3 [Bryostatin 1]						> 0.1						0.155			0.0009												
0.144	0.115	COc1ccc(-c2cc3c(C)nc(N)nc3n([C@H]3CC[C@H](OCCO)CC3)c2=O)cn1	0.294	0.193	0.196	0.193	0.418	0.121	0.063	0.158	0.234	0.268	0.18	0.0405	0.787	0.783	1.99	0.229	0.402	0.444	0.19	0.983	3.87	4.09		6.07	0.575		5.41
	27.4	O=S(=O)(c1cccc2cnccc12)N1CCCNCC1 [Fasudil]											1.69																

Structure (SMILES)	EC50, CellTiter-Blue viability (MDA-MB-231 [7]) [µM]	EC50, CellTiter-Glo (MDA-MB-453) [µM]	EC50, CellTiter-Glo (CAL-148 [1]) [µM]	EC50, CellTiter-Blue viability (BT-474 [2]) [µM]	EC50, CellTiter-Blue viability (BT-549 [3]) [µM]	EC50, CellTiter-Blue viability (CAL-120) [µM]	EC50, CellTiter-Blue viability (HCC1143) [µM]	EC50, CellTiter-Blue viability (HCC1599 [4]) [µM]	EC50, CellTiter-Blue viability (HCC1937 [5]) [µM]	EC50, CellTiter-Blue viability (Hs578T [6]) [µM]	EC50, CellTiter-Blue viability (MDA-MB-436 [8]) [µM]	EC50, CellTiter-Blue viability (MDA-MB-468) [µM]	EC50, CellTiter-Blue viability (MFM-223) [µM]	EC50, CellTiter-Blue viability (SK-BR-3) [µM]	EC50, CellTox Green (CAL-148 [9]) [µM]	EC50, CellTox Green (CAL-51) [µM]	EC50, CellTox Green (HDQ-P1 [10]) [µM]	EC50, CellTiter-Glo (CAL-85-1 [11]) [µM]	EC50, CellTiter-Glo (HCC1599 [12]) [µM]	EC50, CellTiter-Glo (HCC1937 [13]) [µM]	EC50, CellTiter-Glo (HDQ-P1 [14]) [µM]	EC50, CellTox Green (BT-474 [15]) [µM]	EC50, CellTox Green (BT-549 [16]) [µM]	EC50, CellTox Green (CAL-85-1 [17]) [µM]	EC50, CellTox Green (HCC1599 [18]) [µM]	EC50, CellTox Green (Hs578T [19]) [µM]	EC50, CellTox Green (MDA-MB-231 [20]) [µM]	EC50, CellTox Green (MDA-MB-436 [21]) [µM]	EC50, CellTox Green (HCC1937 [22]) [µM]
O=C1c2c(O)ccc(O)c2C(=O)c2c(NCCNCCO)ccc(NCCNCCO)c21 [Mitoxantrone]	0.0517		0.403	0.106	0.35	0.0159	0.0118	0.0521	0.00213	0.532	0.684	0.0747	0.522	0.0345	0.124	0.185													
C[C@]12O[C@H](C[C@]1(O)CO)n1c3ccccc3c3c4c(c5c6ccccc6n2c5c31)CNC4=O [Lestaurtinib]		0.00303			0.672	0.0655	0.151	0.201	0.369		0.202		0.133	0.813				0.277	0.238	> 1	0.233	0.819	1	0.356	0.439	0.333	> 1	0.0119	
